Experimental data published in patent US20040038428A1, “Protein microarrays” (priority 2000, published 2004).
Each block holds one molecule with its values, some of them ahead of it. No end group written: not given here.

Assays:
FKBP12 = FKBP12 (Homo sapiens, UniProt P62942); conditions: read-out: dissociation constants for FKBP12; cited from earlier work
p42 MAP kinase (Erk2) = target: T1, p42 MAP kinase (Erk2) (Mus musculus, UniProt P63085); experiment: kinase substrate screen on BSA-NHS slides with 33P-γ-ATP, Erk2; assay type: biochemical; conditions: slide incubated with Erk2
T1 construct: purchased New England Biolabs (Beverly, Mass.)
T1 sequence (P63085 2-358 limits assumed): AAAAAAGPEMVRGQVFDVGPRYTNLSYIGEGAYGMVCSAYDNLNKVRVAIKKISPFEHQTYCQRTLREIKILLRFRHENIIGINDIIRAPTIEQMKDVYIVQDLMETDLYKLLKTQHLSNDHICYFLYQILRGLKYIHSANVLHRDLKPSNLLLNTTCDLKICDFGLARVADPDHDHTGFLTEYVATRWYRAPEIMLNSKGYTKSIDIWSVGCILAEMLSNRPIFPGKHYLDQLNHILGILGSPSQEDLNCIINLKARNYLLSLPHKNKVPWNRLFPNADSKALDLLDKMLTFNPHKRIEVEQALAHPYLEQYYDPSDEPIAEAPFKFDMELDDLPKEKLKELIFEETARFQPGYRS
Description: (§1) To give but one example, most signal transduction networks are composed of numerous kinases and the proteins that they phosphorylate. Protein microarrays offer an ideal system for the rapid and parallel identification of the substrates of protein kinases. A microarray of proteins can be incubated with a purified kinase in the presence of ATP, and the substrates identified by detecting their phosphorylation. In but one exemplary system, three different kinase/substrate pairs were chosen: cAMP-dependent protein kinase (PKA) and “Kemptide” (a peptide substrate for PKA) (Kemp et al. J. Biol. Chem. 252:4888-4894, 1977; incorporated herein by reference); casein kinase II (CKII) and protein phosphatase inhibitor 2 (I-2) (DePaoli-Roach J. Biol. Chem. 259:12144-12152, 1984; incorporated herein by reference); and p42 MAP kinase (Erk2) and Elk1 (Marais et al. Cell 73:381-393, 1993; incorporated herein by reference). […] Following a three-hour incubation, each slide was quenched with glycine and incubated with a different kinase in the presence of ^33P-γ-ATP (FIG. 3). […]
(§2) The slide in FIG. 3A was incubated with PKA. […] Since isotopic […] is known to be quantitative, the best substrates in a library of peptides can be readily identified. […]
(§3) For FIG. 3, the proteins were spotted on BSA-NHS slides using a GMS 417 Arrayer. […] The slides were then ready for further processing (see below). […]

[1] = system: 5-helix (portion of the HIV protein gp41); conditions: rank among the three peptides; cited from earlier work
[2] = target: T2, cAMP-dependent protein kinase (PKA) (Mus musculus, UniProt P05132); experiment: kinase substrate screen on BSA-NHS slides with 33P-γ-ATP, PKA; assay type: biochemical; conditions: slide incubated with PKA
T2 construct: purchased New England Biolabs (Beverly, Mass.)
Description: as §1, §2, §3

[3] = target: T3, p50 (of the NFκB complex) (Homo sapiens, UniProt P19838); experiment: protein microarray: protein-protein interaction, p50 spots; assay type: binding; conditions: probe 0.1 μg/ml
T3 construct: p50 (of the NFκB complex) and IκBα
T3 sequence (P19838 1-433 limits assumed): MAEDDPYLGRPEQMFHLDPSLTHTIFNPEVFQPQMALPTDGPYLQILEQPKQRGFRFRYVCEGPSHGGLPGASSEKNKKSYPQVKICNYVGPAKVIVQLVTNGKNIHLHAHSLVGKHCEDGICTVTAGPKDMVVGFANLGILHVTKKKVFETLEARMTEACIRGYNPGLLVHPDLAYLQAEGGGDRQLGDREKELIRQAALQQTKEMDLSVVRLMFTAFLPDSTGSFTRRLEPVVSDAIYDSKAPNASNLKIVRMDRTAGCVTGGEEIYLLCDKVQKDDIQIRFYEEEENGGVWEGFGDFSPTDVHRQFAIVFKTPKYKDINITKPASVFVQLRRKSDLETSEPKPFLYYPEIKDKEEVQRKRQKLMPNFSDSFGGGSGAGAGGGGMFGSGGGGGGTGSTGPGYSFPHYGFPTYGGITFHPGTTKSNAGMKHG
From the text: Arraying Proteins on Glass Slides.
Screening for Protein-Protein Interactions.

casein kinase II (CKII) = target: T4, casein kinase II (CKII) (Homo sapiens, UniProt P68400); experiment: kinase substrate screen on BSA-NHS slides with 33P-γ-ATP, CKII; assay type: biochemical; conditions: slide incubated with CKII
T4 construct: purchased New England Biolabs (Beverly, Mass.)
T4 sequence (P68400 whole entry): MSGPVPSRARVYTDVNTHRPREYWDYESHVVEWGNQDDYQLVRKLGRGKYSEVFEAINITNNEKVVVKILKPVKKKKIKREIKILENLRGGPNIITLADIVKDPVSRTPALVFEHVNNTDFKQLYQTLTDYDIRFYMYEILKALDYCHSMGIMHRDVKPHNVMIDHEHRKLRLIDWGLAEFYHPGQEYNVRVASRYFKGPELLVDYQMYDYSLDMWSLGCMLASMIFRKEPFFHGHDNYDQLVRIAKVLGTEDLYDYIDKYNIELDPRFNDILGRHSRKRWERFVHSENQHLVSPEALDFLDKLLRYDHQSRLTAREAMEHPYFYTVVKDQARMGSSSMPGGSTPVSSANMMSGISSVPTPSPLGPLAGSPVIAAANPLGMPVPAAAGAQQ
T4 sequence (P67870 whole entry partner): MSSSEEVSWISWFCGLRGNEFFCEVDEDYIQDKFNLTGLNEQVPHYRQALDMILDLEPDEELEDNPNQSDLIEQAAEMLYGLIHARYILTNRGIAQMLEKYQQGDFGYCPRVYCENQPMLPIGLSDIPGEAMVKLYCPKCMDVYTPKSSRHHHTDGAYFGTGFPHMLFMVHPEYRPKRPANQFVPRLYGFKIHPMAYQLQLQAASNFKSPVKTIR
Description: as §1, §2, §3

Chain of FKBP12 (P62942 whole entry): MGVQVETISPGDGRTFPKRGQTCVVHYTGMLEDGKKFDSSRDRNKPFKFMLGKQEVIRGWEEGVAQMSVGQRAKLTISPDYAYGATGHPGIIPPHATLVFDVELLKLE

Molecule: COc1ccc(CC[C@@H](OC(=O)[C@@H]2CCCCN2C(=O)Cc2ccccc2)c2cccc(OCC(=O)O)c2)cc1OC [Compound 3c]
Kd (FKBP12): 2600 nM

phosphorylation of spotted substrate (p42 MAP kinase (Erk2)): phosphorylated
Molecule: Elk1: protein substrate of p42 MAP kinase (Erk2)

Molecule: GGHTTWMEADREINNYTSLIHSLIEESQNQQEKNEQELL [JN-DCC2, peptide ligand for 5-helix]
relative affinity for 5-helix [1]: lowest affinity

Molecule: GGHTTWMELDREINNYTSLIHSLIEESQNQQEKNEQELL [JN-DCC1, peptide ligand for 5-helix]
relative affinity for 5-helix [1]: second highest affinity

Molecule: GGHTTWMEWDREINNYTSLIHSLIEESQNQQEKNEQELLGGHHHHHH [Compound C37-H6, peptide ligand for 5-helix]
relative affinity for 5-helix [1]: highest affinity

phosphorylation of spotted substrate [2]: phosphorylated
Molecule: LRRASLG [Kemptide]

localization of Cy3 fluorescence on array of protein G, p50 and GST-FRB [3]: localized to the p50-containing spots
B1: Cy3-conjugated IκBα: IκBα labeled with Cy3 (protein, UniProt P25963 1-317, looked up)
NF-kappa-B inhibitor alpha: MFQAAERPQEWAMEGPRDGLKKERLLDDRHDSGLDSMKDEEYEQMVKELQEIRLEPQEVPRGSEPWKQQLTEDGDSFLHLAIIHEEKALTMEVIRQVKGDLAFLNFQNNLQQTPLHLAVITNQPEIAEALLGAGCDPELRDFRGNTPLHLACEQGCLASVGVLTQSCTTPHLHSILKATNYNGHTCLHLASIHGYLGIVELLVSLGADVNAQEPCNGRTALHLAVDLQNPDLVSLLLKCGADVNRVTYQGYSPYQLTWGRPSTRIQQQLGQLTLENLQMLPESEDEESYDTESEFTEFTEDELPYDDCVFGGQRLTL
modifications: Cy3 label

phosphorylation of spotted substrate (casein kinase II (CKII)): phosphorylated
B2: I-2: protein phosphatase inhibitor 2, substrate of casein kinase II (protein, UniProt P41236 2-205, looked up)
Protein phosphatase inhibitor …: AASTASHRPIKGILKNKTSTTSSMVASAEQPRGNVDEELSKKSQKWDEMNILATYHPADKDYGLMKIDEPSTPYHSMMGDDEDACSDTEATEAMAPDILARKLAAAEGLEPKYRIQEQESSGEEDSDLSPEEREKKRQFEMKRKLHYNEGLNIKLARQLISKDLHDDDEDEEMLETADGESMNTEESNQGSTPSDQQQNKLRSS
